According to publication PMC10607160 (International Journal of Molecular Sciences, 2023):

How the values were obtained:
human GnRHR I = molecular target: T1, human GnRHR I (Homo sapiens, UniProt P30968); assay: Competitive radioligand binding (125I-DTyr6-His5-GnRH) on membranes from HEK 293 cells stably expressing GnRHR I; conditions: competition with 125I-DTyr6-His5-GnRH, HEK 293 membranes, 4 °C 16-19 h, one-site model; read-out: apparent binding affinity (IC50)
T1 construct: expressed in transfected cells
T1 sequence (P30968 1-328): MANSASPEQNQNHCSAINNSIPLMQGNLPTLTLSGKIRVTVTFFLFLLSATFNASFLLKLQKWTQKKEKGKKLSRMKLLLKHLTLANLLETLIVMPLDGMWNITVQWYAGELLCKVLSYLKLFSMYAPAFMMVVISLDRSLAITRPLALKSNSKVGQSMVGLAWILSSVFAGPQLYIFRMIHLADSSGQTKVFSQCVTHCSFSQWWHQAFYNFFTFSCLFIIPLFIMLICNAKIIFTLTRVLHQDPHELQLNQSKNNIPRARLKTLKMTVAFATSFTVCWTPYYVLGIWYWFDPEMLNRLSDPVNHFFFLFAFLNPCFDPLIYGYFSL

[1] = molecular target: E. coli Trx1 / E. coli TrxR (thioredoxin system) (Escherichia coli, UniProt P0AA25); assay: Disulfide bond reduction assay by EcoTrx1 (NADPH absorbance at 340 nm); assay type: biochemical; conditions: for Absorbance Asample1 / Absorbance Asample2 / Absorbance Average1, 2: A340, with TrxR
Description: The assay employed was based on changes in the absorbance at 340 nm from the oxidation of NADPH using a modified version of the protocol laid out in [90]. Briefly, the decrease in A340 was measured in 96-well plates containing 100 μL of 200 mM potassium phosphate pH 7.4, 1 mM EDTA, 0.1 mg/mL BSA, 200 μM NADPH, 2 μM E. coli Trx1 and 10 nM E. coli TrxR for 5 min at 25 °C with insulin at a final concentration of 0.067 mM (0.2 mM disulfides) (see Table S2). The reduction of con7 was measured at a final concentration of 0.2 mM (see Table S3). Blanks were samples without EcoTrxR.
Figure 4 Reduction of (A) con7 and (B) insulin by EcoTrx1. The assay mixture contains 200 mM potassium phosphate pH 7.4, 1 mM EDTA, 0.1 mg/mL BSA, 200 μM NADPH, 2 μM Escherichia coli Trx1, 10 nM E. coli TrxR, (A) 0.2 mM con7 or (B) 0.067 mM (0.2 mM disulfides) insulin. The reaction was carried out at 25 °C by monitoring the decrease of NADPH absorbance at 340 nm for (A) con7 in the absence ( [drawing 1] ) or presence of TrxR ( [drawing 2] ) and (B) insulin in the absence ( [drawing 3] ) or presence of TrxR ( [drawing 4] ).

[2] = Solubility issue noted in the binding experiments; assay type: physicochemical; conditions: in binding assay
Description: The data were fitted to a one-site competition model via nonlinear regression and the IC50 values were determined as described in Section 3.4.

Sequence of E. coli Trx1 / E. coli TrxR (thioredoxin system) (P0AA25 2-109): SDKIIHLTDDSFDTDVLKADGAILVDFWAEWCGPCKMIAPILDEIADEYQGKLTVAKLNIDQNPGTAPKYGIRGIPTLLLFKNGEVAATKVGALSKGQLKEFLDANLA

SMILES: CCNC(=O)[C@@H]1CCCN1C(=O)[C@H](CCCNC(=N)N)NC(=O)[C@H](CC(C)C)NC(=O)[C@@H](CCCCNC(=O)CCCCCNC(=O)CCSSCC(=O)OCCNCCNc1ccc(NCCNCCO)c2c1C(=O)c1c(O)ccc(O)c1C2=O)NC(=O)[C@H](Cc1ccc(O)cc1)NC(=O)[C@H](CO)NC(=O)[C@H](Cc1c[nH]c2ccccc12)NC(=O)[C@H](Cc1c[nH]cn1)NC(=O)[C@@H]1CCC(=O)N1 [con7]
- IC50 (human GnRHR I): 0.06 nM
- speed of reduction compared with insulin ([1]; 0.2 mM con7 vs 0.067 mM insulin (0.2 mM disulfides), 25 °C): more rapid
- Absorbance Asample1 ([1]; 0 sec): 1.004
- Absorbance Asample2 ([1]; 0 sec): 0.982
- Absorbance Average1, 2 ([1]; 0 sec): 0.993
- Absorbance Asample1 ([1]; 9 sec): 1.004
- Absorbance Asample2 ([1]; 9 sec): 0.980
- Absorbance Average1, 2 ([1]; 9 sec): 0.992
- Absorbance Asample1 ([1]; 18 sec): 1.004
- Absorbance Asample2 ([1]; 18 sec): 0.981
- Absorbance Average1, 2 ([1]; 18 sec): 0.992
- Absorbance Asample1 ([1]; 27 sec): 1.003
- Absorbance Asample2 ([1]; 27 sec): 0.980
- Absorbance Average1, 2 ([1]; 27 sec): 0.991
- Absorbance Asample1 ([1]; 36 sec): 1.002
- Absorbance Asample2 ([1]; 36 sec): 0.978
- Absorbance Average1, 2 ([1]; 36 sec): 0.990
- Absorbance Asample1 ([1]; 45 sec): 1.000
- Absorbance Asample2 ([1]; 45 sec): 0.979
- Absorbance Average1, 2 ([1]; 45 sec): 0.989
- Absorbance Asample1 ([1]; 54 sec): 1.000
- Absorbance Asample2 ([1]; 54 sec): 0.977
- Absorbance Average1, 2 ([1]; 54 sec): 0.988
- Absorbance Asample1 ([1]; 63 sec): 0.999
- Absorbance Asample2 ([1]; 63 sec): 0.977
- Absorbance Average1, 2 ([1]; 63 sec): 0.988
- Absorbance Asample1 ([1]; 72 sec): 0.999
- Absorbance Asample2 ([1]; 72 sec): 0.976
- Absorbance Average1, 2 ([1]; 72 sec): 0.987
- Absorbance Asample1 ([1]; 81 sec): 0.998
- Absorbance Asample2 ([1]; 81 sec): 0.973
- Absorbance Average1, 2 ([1]; 81 sec): 0.985
- Absorbance Asample1 ([1]; 90 sec): 0.997
- Absorbance Asample2 ([1]; 90 sec): 0.974
- Absorbance Average1, 2 ([1]; 90 sec): 0.985
- Absorbance Asample1 ([1]; 99 sec): 0.996
- Absorbance Asample2 ([1]; 99 sec): 0.972
- Absorbance Average1, 2 ([1]; 99 sec): 0.984
- Absorbance Asample1 ([1]; 108 sec): 0.996
- Absorbance Asample2 ([1]; 108 sec): 0.971
- Absorbance Average1, 2 ([1]; 108 sec): 0.983
- Absorbance Asample1 ([1]; 117 sec): 0.995
- Absorbance Asample2 ([1]; 117 sec): 0.971
- Absorbance Average1, 2 ([1]; 117 sec): 0.983
- Absorbance Asample1 ([1]; 126 sec): 0.994
- Absorbance Asample2 ([1]; 126 sec): 0.970
- Absorbance Average1, 2 ([1]; 126 sec): 0.982
- Absorbance Asample1 ([1]; 135 sec): 0.992
- Absorbance Asample2 ([1]; 135 sec): 0.968
- Absorbance Average1, 2 ([1]; 135 sec): 0.980
- Absorbance Asample1 ([1]; 144 sec): 0.991
- Absorbance Asample2 ([1]; 144 sec): 0.967
- Absorbance Average1, 2 ([1]; 144 sec): 0.979
- Absorbance Asample1 ([1]; 153 sec): 0.990
- Absorbance Asample2 ([1]; 153 sec): 0.966
- Absorbance Average1, 2 ([1]; 153 sec): 0.978
- Absorbance Asample1 ([1]; 162 sec): 0.990
- Absorbance Asample2 ([1]; 162 sec): 0.966
- Absorbance Average1, 2 ([1]; 162 sec): 0.978
- Absorbance Asample1 ([1]; 171 sec): 0.989
- Absorbance Asample2 ([1]; 171 sec): 0.964
- Absorbance Average1, 2 ([1]; 171 sec): 0.977
- Absorbance Asample1 ([1]; 180 sec): 0.989
- Absorbance Asample2 ([1]; 180 sec): 0.965
- Absorbance Average1, 2 ([1]; 180 sec): 0.977
- Absorbance Asample1 ([1]; 189 sec): 0.989
- Absorbance Asample2 ([1]; 189 sec): 0.964
- Absorbance Average1, 2 ([1]; 189 sec): 0.977
- Absorbance Asample1 ([1]; 198 sec): 0.988
- Absorbance Asample2 ([1]; 198 sec): 0.962
- Absorbance Average1, 2 ([1]; 198 sec): 0.975
- Absorbance Asample1 ([1]; 207 sec): 0.986
- Absorbance Asample2 ([1]; 207 sec): 0.961
- Absorbance Average1, 2 ([1]; 207 sec): 0.974
- Absorbance Asample1 ([1]; 216 sec): 0.987
- Absorbance Asample2 ([1]; 216 sec): 0.960
- Absorbance Average1, 2 ([1]; 216 sec): 0.974
- Absorbance Asample1 ([1]; 225 sec): 0.985
- Absorbance Asample2 ([1]; 225 sec): 0.959
- Absorbance Average1, 2 ([1]; 225 sec): 0.972
- Absorbance Asample1 ([1]; 234 sec): 0.984
- Absorbance Asample2 ([1]; 234 sec): 0.957
- Absorbance Average1, 2 ([1]; 234 sec): 0.971
- Absorbance Asample1 ([1]; 243 sec): 0.984
- Absorbance Asample2 ([1]; 243 sec): 0.955
- Absorbance Average1, 2 ([1]; 243 sec): 0.970
- Absorbance Asample1 ([1]; 252 sec): 0.982
- Absorbance Asample2 ([1]; 252 sec): 0.954
- Absorbance Average1, 2 ([1]; 252 sec): 0.968
- Absorbance Asample1 ([1]; 261 sec): 0.982
- Absorbance Asample2 ([1]; 261 sec): 0.952
- Absorbance Average1, 2 ([1]; 261 sec): 0.967
- Absorbance Asample1 ([1]; 270 sec): 0.980
- Absorbance Asample2 ([1]; 270 sec): 0.952
- Absorbance Average1, 2 ([1]; 270 sec): 0.966
- Absorbance Asample1 ([1]; 279 sec): 0.981
- Absorbance Asample2 ([1]; 279 sec): 0.951
- Absorbance Average1, 2 ([1]; 279 sec): 0.966
- Absorbance Asample1 ([1]; 288 sec): 0.979
- Absorbance Asample2 ([1]; 288 sec): 0.949
- Absorbance Average1, 2 ([1]; 288 sec): 0.964
- Absorbance Asample1 ([1]; 297 sec): 0.978
- Absorbance Asample2 ([1]; 297 sec): 0.949
- Absorbance Average1, 2 ([1]; 297 sec): 0.963
- reduction of disulfide bond by the thioredoxin system ([1]; decrease of NADPH absorbance over time in samples containing TrxR): successful

SMILES: CCNC(=O)[C@@H]1CCCN1C(=O)[C@H](CCCNC(=N)N)NC(=O)[C@H](CC(C)C)NC(=O)[C@@H](CSSCC(=O)NCCCCNc1ccc(O)c2c1C(=O)c1ccccc1C2=O)NC(=O)[C@H](Cc1ccc(O)cc1)NC(=O)[C@H](CO)NC(=O)[C@H](Cc1c[nH]c2ccccc12)NC(=O)[C@H](Cc1c[nH]cn1)NC(=O)[C@@H]1CCC(=O)N1 [con4]
- solubility [2]: solubility issues
